Measured values published in patent US4560557A, “Silicon and sulfur steroids as irreversible inhibitors of hormone biosynthesis” (University Patents, Inc., priority 1983, dated 1985).

Tests used:
[1] = tested on: cytochrome P-450 cholesterol side chain cleavage enzyme (P-450scc); assay: P-450scc inactivation, preincubation study (pregnenolone formation from [3H]cholesterol); assay type: biochemical; conditions: NADPH and/or O2, FIG. 1: P450 1.35 μM, steroid 20 μM
Experimental: As mentioned previously, the compounds of the present invention are potent inhibitors of the conversion of cholesterol to pregnenolone.
The final turnover mixture contained 2.5 μM adrenodoxin, 150 nM adrenodoxin reductase, 50 mM K^+ MOPS (pH 7.2), 10 mM MgCl2, 0.2% Tween 20, 1 unit/mL catalase, a NADPH-generating system of 16 μM NADPH, 3 mM G6P, and 1 unit/mL […]. For a typical preincubation experiment, inhibitor was added as an ethanol solution (2-10 mM) into the P-450 turnover mixture at 37° C. and the reactions were started by addition of NADPH stock solution. After, 0, 5, 10, 15, 30, or 45 min. of incubation, an aliquot of this mixture (200μ) was introduced into 1.8 ml of the turnover mixture containing [1, 2-^3 H] cholesterol (100 μM 10,000 dpm/nmol). After 10 min., the reaction was terminated by acidification, and [4-^- C] prengenolone were added as an internal standard. The resulting mixture was extracted using ethyl acetate and evaporated to dryness. The product pregnenolone was separated on silica gel TLC plates (Baker-flex) using 1:1 ethyl acetate-hexane as the solvent. The product formation was determined from the ratio of ^3 H to ^14 C in the recovered pregnenolone.
The P450 concentration was 1.35 μM and the steroid was 20 μM=NADPH; 0=no inhibitor+NADPH; 0=NADPH.

[2] = tested on: human adrenal cells; assay: ACTH-stimulated cortisol production by human adrenal cell suspensions; assay type: cell-based; conditions: for time dependence of inhibition of cortisol production: FIG. 4, FIG. 5; for inhibition of ACTH-stimulated cortisol production: human cells
From the text: (§1) Additionally data showing that the silicon and sulfur-containing compounds of the present invention are effective at halting steroid hormone biosynthesis when given at low concentrations to suspensions of human and rat adrenal cells are depicted in the following figures and table.

[3] = tested on: rat adrenal cells; assay: Time and concentration dependence of effects on ACTH-stimulated corticosterone production by rat adrenal cells; assay type: cell-based; conditions: for time dependence of inhibition of corticosterone production: FIG. 2, FIG. 3; for inhibition of ACTH-stimulated corticosterone production: rat cells
Experimental: as §1
Steroid was added at […]. […] At 10 μM 20 OH TMS steroid, corticosterone production is obliterated by 40 min.
Steroid was added at t=-10 min.

[4] = tested on: rat adrenocortical cells; assay: Effects of cholesterol analogues on adrenal cell corticosterone production (with or without ACTH); assay type: cell-based
From the text: When rat adrenocortical cells were stimulated with ACTH in the presence of the P-450 scc inhibitors of the present invention, and the production of cortiscoterone measured, less corticosterone was produced in the presence of the compounds of the present invention, then when those compounds were absent.
Corticosterone production rates by non-stimulated rat adrenal cell suspensions are approximately one-fifth those of ACTH stimulated rates. […] This property, combined with P-450 scc inhibitors with and without polar side chains was used to determine how ACTH stimulation results in increased conversion of endogenous cholesterol to corticosterone.
Cells (30,000/ml) were preincubated with steroid for 10 minutes.
Maximally stimulating levels of ACTH were then added and the
incubation continued for another 60 minutes. The incubations were
then quenched, and samples assayed for
corticosterone fluorometrically.

[5] = ACTH + steroid 2 ug/ml, ACTH only = 100, 10 min preincubation, 60 min incubation
[6] = FIG. 5, 10 μM for the 20(S) compound

Row | Compound | inhibition of cortisol production ([2]; FIG. 4) | time dependence of inhibition of cortisol production [2] | inhibition of ACTH-stimulated cortisol production [2] | time dependence of inhibition of corticosterone production [3] | inhibition of ACTH-stimulated corticosterone production [3] | CORTICOSTERONE PRODUCED (%) [4, 5] | inhibition of cortisol production [2, 6] | other results
1 | C[C@]12CC[C@H]3[C@@H](CC=C4C[C@@H](O)CC[C@@]43C)[C@@H]1CC[C@@H]2[C@@](C)(O)CC[Si](C)(C)C [20 OH TMS, 20-(2-Trimethylsilyl-ethyl) pregnen-3, 20a-diol] | strongly inhibits cortisol production | probably in a time dependent manner | inhibits | strongly time dependent | inhibits |  |  | loss of enzyme activity / P-450 scc inhibition [1]: P-450 scc inhibition; loss of enzyme activity / P-450 scc inhibition ([1]; listed as trimethyl silyl-containing compound): time-dependent loss of enzyme activity; corticosterone production ([3]; 10 μM steroid, by 40 min (FIG. 2)): obliterated
2 | 22 (trimethylisilyl pregnenol) | little inhibitory effect on cortisol production |  |  |  |  |  |  | 
3 | CC(C)CCS[C@H](C)[C@H]1CC[C@H]2[C@@H]3CC=C4C[C@@H](O)CC[C@]4(C)[C@H]3CC[C@]12C [20(R)22 thiacholesterol] |  | not time dependent |  |  |  | 117.9% | inhibited slightly | 
4 | C[C@H](CCCC(C)(C)O)[C@H]1CC[C@H]2[C@@H]3CC=C4C[C@@H](O)CC[C@]4(C)[C@H]3CC[C@]12C [25 hydroxycholesterol, reference compound] |  |  |  |  |  | 117.0% |  | activity at 2 µg/mL ([4]; Rattus norvegicus, 1 h, steroid 2 ug/ml without ACTH, ACTH only = 100, read-out: CORTICOSTERONE PRODUCED (%)): 21.9%; activity at 5 µg/mL ([4]; Rattus norvegicus, 1 h, steroid 5 ug/ml without ACTH, ACTH only = 100, read-out: CORTICOSTERONE PRODUCED (%)): 30.4%; corticosterone production rate relative to ACTH stimulated cells ([4]; non-stimulated cells): as much as one-half those of ACTH stimulated cells
5 | CC(C)CCS[C@@H](C)[C@H]1CC[C@H]2[C@@H]3CC=C4C[C@@H](O)CC[C@]4(C)[C@H]3CC[C@]12C [20(S)22 thiacholesterol] |  | probably in a time dependent manner | inhibits | only slightly time dependent | inhibits | 54.1% | strongly inhibited | CORTICOSTERONE PRODUCED (%) ([4]; 25 hydroxycholesterol 5 ug/ml + 20(S)22 thialcholesterol 5 ug/ml, without ACTH, ACTH only = 100, 60 min): 15.5%; corticosterone production (in words) ([4]; ACTH-stimulated cells): decreased corticosterone production; concentration dependence of inhibition of corticosterone production ([3]; FIG. 3): strongly concentration dependent
